The values below come from US11325896B2, “Antagonists of the muscarinic acetylcholine receptor M4” (Vanderbilt University, priority 2017, dated 2022).

The target of one test is T1, human mAChR M4 (Homo sapiens, UniProt P08173).
T1 construct: expressed in transfected cells; host or cells: CHO-K1 (ATCC), stably co-expressing the chimeric G protein Gqi5
T1 sequence (P08173 1-479): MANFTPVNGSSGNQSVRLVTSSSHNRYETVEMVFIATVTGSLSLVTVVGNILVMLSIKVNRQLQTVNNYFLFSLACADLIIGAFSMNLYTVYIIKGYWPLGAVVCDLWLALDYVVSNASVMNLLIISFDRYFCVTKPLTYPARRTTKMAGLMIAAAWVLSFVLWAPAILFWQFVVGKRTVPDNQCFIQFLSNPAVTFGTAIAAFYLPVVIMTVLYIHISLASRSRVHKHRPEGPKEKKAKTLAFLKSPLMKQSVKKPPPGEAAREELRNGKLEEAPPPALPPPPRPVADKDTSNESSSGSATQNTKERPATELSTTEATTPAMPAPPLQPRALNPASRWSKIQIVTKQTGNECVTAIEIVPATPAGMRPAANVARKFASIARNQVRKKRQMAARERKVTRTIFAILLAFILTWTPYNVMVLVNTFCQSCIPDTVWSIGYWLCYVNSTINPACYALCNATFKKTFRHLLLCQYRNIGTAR
In words: mAChR M4 cell-based functional assay (calcium flux, decrease of EC80 acetylcholine response). As to conditions: for remaining activity at 30 µM: % ACh maximum at 30 μM, human M4, read-out: Emin; for IC50: M4/Gqi5/CHO-K1 cells, decrease of response to EC80 acetylcholine. How it is done: Human or rat M4 cDNA, along with the chimeric G protein Gqi5, were transfected into Chinese hamster ovary (CHO-K1) cells purchased from the American Type Culture Collection using Lipofectamine2000. M4/Gqi5/CHO cells were grown in Ham's F-12 medium containing 10% heat-inactivated fetal bovine serum (FBS), 20 mM HEPES, 500 μg/mL G418 sulfate, and 200 μg/mL Hygromycin B.
For high throughput measurement of agonist-evoked increases in intracellular calcium, CHO-K1 cells stably expressing muscarinic receptors were plated in growth medium lacking G418 and hygromycin at 15,000 cells/20 μL/well in Greiner 384-well black-walled, tissue culture (TC)-treated, clear-bottom plates (VWR). Cells were incubated overnight at 37° C. and 5% CO2. The next day, cells were washed using an ELX 405 (BioTek) with assay buffer: the final volume was then aspirated to 20 μL. Next, 20 μL of a 2.3 μM stock of Fluo-4/acetoxymethyl ester (Invitrogen, Carlsbad, Calif.), prepared as a 2.3 mM stock in DMSO and mixed in a 1:1 ratio with 10% (w/v) Pluronic F-127 and diluted in assay buffer, was added to the wells and the cell plates were incubated for 50 min at 37° C. and 5% CO2. Dye was removed by washing with the ELX 405 and the final volume was aspirated to 20 μL. Compound master plates were formatted in a 10 point concentration-response curve (CRC) format (1:3 dilutions) in 100% DMSO with a starting concentration of 10 or 1 mM using a BRAVO liquid handler (Agilent). Test compound CRCs were then transferred to daughter plates (240 nL) using the Echo acoustic plate reformatter (Labcyte, Sunnyvale, Calif.) and then diluted into assay buffer (40 μL) to a 2× stock using a Thermo Fisher Combi (Thermo Fisher Scientific, Waltham, Mass.).
Calcium flux was measured using the Functional Drug Screening System (FDSS) 6000 or 7000 (Hamamatsu Corporation, Tokyo, Japan) as an increase in the fluorescent static ratio. Compounds were applied to cells (20 μL, 2×) using the automated system of the FDSS at 2 seconds into the protocol and the data were collected at 1 Hz. At 143 s, 10 μL of an EC20 concentration of the muscarinic receptor agonist acetylcholine was added (5×), followed by the addition of 12 μL of an EC80 concentration of acetylcholine at the 268 s time point (5×). Agonist activity was analyzed as a concentration-dependent increase in calcium mobilization upon compound addition. Positive allosteric modulator activity was analyzed as a concentration-dependent increase in the EC20 acetylcholine response. Antagonist activity was analyzed as a concentration-dependent decrease in the EC80 acetylcholine response; for the purposes of the tables herein, an IC50 (inhibitory concentration 50) was calculated as a concentration-dependent decrease of the response elicited by an EC80 concentration of acetylcholine. Concentration-response curves were generated using a four-parameter logistical equation in XLFit curve fitting software (IDBS, Bridgewater, N.J.) for Excel (Microsoft, Redmond, Wash.) or Prism (GraphPad Software, Inc., San Diego, Calif.) or the Dotmatics software platform (Dotmatics, Bishop's Stortford, UK).
Compounds were synthesized as described above. Activity (IC50 and Emin) was determined in the mAChR M4 cell-based functional assay as described above and the data are shown in Table 4. The compound numbers correspond to those used in Examples 1-4 and Tables 1-3.
In general terms: Calcium flux is commonly read through the fluorescence of an indicator in the cells.

Another test concerns M4 knockout mice. The conditions noted are these: not the other four mAChR subtypes; cited from earlier work.
Test [1] relates to haloperidol-induced catalepsy. In words: haloperidol-induced catalepsy in mice. In kind it is in vivo. From the text:
Furthermore, haloperidol-induced catalepsy, a model of parkinsonian motor disability, is reduced in M4 knockout mice as compared to wild-type controls. […] The reversal by scopolamine was uncommonly robust and more pronounced than we observe with agents targeting a number of other targets being evaluated for potential antiparkinsonian effects, including metabotropic glutamate (mGlu) receptors mGlu4 or mGlu5, A2A adenosine receptors, and NMDA receptors. […] Taken together with the extensive studies of M4 modulation of basal ganglia and motor function, these studies provide compelling evidence that M4 is the dominant mAChR subtype involved in the antiparkinsonian effects of non-selective mAChR antagonists and provide support for discovery and development of selective M4 antagonists for treatment of neurodegenerative disease such as PD, dystonia, tardive dyskinesia and other movement disorders.

`Cc1nn(C)cc1-c1ccc(OCC2CC3(C2)CN(CCC(C)(C)C)C3)nn1` [Compound 22, 6-(((6-(1,3-dimethyl-1H-pyrazol-4-yl)pyridazin-3-yl)oxy)methyl)-2-(3,3-dimethylbutyl)-2-azaspiro[3.3]heptane]: at human mAChR M4, the remaining activity at 30 µM is 4.6% and the IC50 was found to be 1380 nM.
`Cc1nn(C)cc1-c1ccc(OCC2CC3(C2)CN(CC2CC4C=CC2C4)C3)nn1` (centres unmarked) [Compound 23, 2-(bicyclo[2.2.1]hept-5-en-2-ylmethyl)-6-(((6-(1,3-dimethyl-1H-pyrazol-4-yl)pyridazin-3-yl)oxy)methyl)-2-azaspiro[3.3]heptane]: at human mAChR M4, the remaining activity at 30 µM was found to be 3.7% and the IC50 turned out to be 680 nM.
In the same order, the values of `Cc1nn(C)cc1-c1ccc(OCC2CC3(C2)CN(Cc2ccccc2)C3)nn1` [Compound 24, 2-benzyl-6-(((6-(1,3-dimethyl-1H-pyrazol-4-yl)pyridazin-3-yl)oxy)methyl)-2-azaspiro[3.3]heptane] are 36.4% and 10000 nM.
In the case of `Cc1cccnc1CN1CC2(CC(COc3ccc(-c4cn(C)nc4C)nn3)C2)C1` [Compound 25, 6-(((6-(1,3-dimethyl-1H-pyrazol-4-yl)pyridazin-3-yl)oxy)methyl)-2-((3-methylpyridin-2-yl)methyl)-2-azaspiro[3.3]heptane], at human mAChR M4, the remaining activity at 30 µM was 16.5% and the IC50 is 4200 nM.
On to `CN1[C@@H]2C[C@@H](OC(=O)[C@H](CO)c3ccccc3)C[C@H]1[C@@H]1O[C@@H]12` [scopolamine], for which, in the test on M4 knockout mice, the locomotor-activating effects entry is recorded as “dramatically reduced”. In addition, the “reduction of catalepsy induced by haloperidol” value in test [1] (M4 KO mice) is reported as “ineffective”. Also, in test [1] (WT mice), the “reversal of catalepsy induced by haloperidol” value is given as “completely reversed”.

By IC50 is commonly meant the point on the concentration scale where inhibition reaches its midpoint.
